Experimental findings from patent publication US5405843A, “Quinoline derivatives” (Mitsui Toatsu Chemicals, Incorporated, priority 1988, dated 1995) are described below.

The structures appear in SMILES notation.

In assay [1] the test system is Vincristine-resistant strain P388/VCR cells of mouse leukemia P388 cells. Put plainly: Potentiating effect on vincristine in mice having vincristine-resistant mouse leukemia (survival). Format: in vivo, mouse (female CDFI mice). The following applies: peritoneal, once a day for 5 days; for T/C (rate of life prolongation): control = 100.
Assay [2] has as its system Adriamycin resistant strain 2780 AD cells of human ovarian cancer A2780 cells. Put plainly: Potentiating effect on incorporation of 3H-vincristine into adriamycin-resistant cancer cells. The note with it: Homo sapiens, 2780AD, 2 h, 20 nM 3H-vincristine, control = 100, read-out: 3H-vincristine accumulation; for activity at 1 µg/mL: compound 1 μg/ml; for activity at 10 µg/mL: compound 10 μg/ml. Type of assay: cell-based. On the procedure: Potentiating Effect of the Compounds on Incorporation of Anticancer Drugs into Drug-resistant Cancer Cells
Adriamycin resistant strain 2780 AD cells of human ovarian cancer A2780 cells (A. M. Rogan et al., Science 224, 994-996, 1984) were suspended at a concentration of 1×10^6 /ml in RPMI-1640 medium supplemented with 5% fetal calf serum, and 1 ml of the cancer cell suspension was dispensed into each well of a multi-well culture plate (24 wells, […] in diameter) and then incubated at 37° C. in an atmosphere of 5% CO2. After 24 hours incubation, the medium in each well was replaced by 0.5 ml of RPMI-1640 medium supplemented containing 20 nM ^3 H-vincristine (1×10^4 dpm/pmol), 5% fetal calf serum and 10 mM Hepes buffer. Five microliters of a solution of the compound to be tested, which had been dissolved in DMSO and diluted with […] (at a concentration of 1.0 microgram/ml or 10.0 micrograms/ml), was added to each well and the incubation was continued at 37° C. in 5% CO2 for 2 hours. The resultant cells were washed in cold saline-phosphate buffer. In each well was added 0.5 ml of 0.2N NaOH, and the resulting cell suspension in each well was independently transferred into a vial and then heated in a water bath at 56° C. for 30-60 minutes to dissolve the cells. After adding 4 ml of acid aquazole 2, the amount of ^3 H-vincristine incorporated into the cells was determined by a fluid scintillation counter.

Where [3] appears, read: compound 30 mg/kg + vincristine 100 ug/kg.
[4] abbreviates: compound 10 mg/kg + vincristine 100 ug/kg.

`CCc1cnc2cccc(OCC(O)CN3CCN(C(c4ccccc4)c4ccccc4)CC3)c2c1` (stereo not shown) [Example 12, 3-Ethyl-5-[3-(4-diphenylmethylpiperazine-1-yl)-2-hydroxypropoxy]quinoline]: in assay [1] (setting [3]), the Average surviving period amounted to 12.5 ± 0.5 days and the “T/C (rate of life prolongation)” value is given as 114%. In addition, in assay [2], the activity at 1 µg/mL was found to be 568% and the activity at 10 µg/mL is 831%.
With `O=C(CCN1CCN(C(c2ccccc2)c2ccccc2)CC1)Nc1cccc2ncccc12` [Example 35, 5-[3-(4-Diphenylmethypiperazine-1-yl)propionamido]-quinoline], in assay [1] (setting [3]), the Average surviving period is on record as 11.9 ± 0.7 days and the “T/C (rate of life prolongation)” value turned out to be 116%. In addition, in assay [2], the activity at 1 µg/mL was found to be 654% and the activity at 10 µg/mL stood at 627%.
For `CCN(CCN(CC)C(c1ccccc1)c1ccccc1)CC(O)COc1cccc2ncccc12` (stereo not shown) [Example 10, 5-(3-[N-(2-(N-Diphenylmethyl-N-ethylamino)ethyl)-N-ethylamino]-2-hydroxypropoxy)quinoline], in that order: 12.3 ± 1.4 days, 112%, 642% and 932%.
In the case of `c1ccc(C(c2ccccc2)N2CCN(CCOc3cccc4ncccc34)CC2)cc1` [Example 34, 5-[2-(4-Diphenylmethylpiperazine-1-yl)ethoxy]quinoline], in assay [1] (setting [3]), the Average surviving period was 10.8 ± 0.8 days and the “T/C (rate of life prolongation)” value turned out to be 98%. In addition, the activity at 1 µg/mL in assay [2] amounted to 785%.
`OC(COc1cccc2ncccc12)CN1CCCN(C(c2ccccc2)c2ccccc2)CC1` (stereo not shown) [Example 4, 5-[3-(4-Diphenylmethylhomopiperazine-1-yl)-2-hydroxypropoxy]quinoline]: in assay [1] (setting [3]), the Average surviving period stood at 11.8 ± 0.4 days and the “T/C (rate of life prolongation)” value turned out to be 107%. Also, in assay [2], the activity at 1 µg/mL was 438% and the activity at 10 µg/mL is 770%.
Turning to `OC(COc1cccc2ncccc12)CN1CCC(C2(O)c3ccccc3CCc3ccccc32)CC1` (stereo not shown) [Example 78, 5-[2-Hyroxy-3-(4-(5-hydroxydibenzosuberane-5-yl)piperidine-1-yl)propoxy]quinoline], in assay [1] (setting [3]), the Average surviving period is recorded as 12.8 ± 0.8 days and the “T/C (rate of life prolongation)” value stood at 120%. For the same compound, in assay [2], the activity at 1 µg/mL is 943%.
With `c1ccc2c(c1)CCc1ccccc1C2N1CCN(CCCOc2cccc3ncccc23)CC1` [Example 83, 5-[3-(4-(Dibenzosuberane-5-yl)piperazine-1-yl)propoxy]quinoline], in assay [1] (setting [3]), the Average surviving period is listed as 13.5 ± 0.5 days and the “T/C (rate of life prolongation)” value came out at 126%. Also, the activity at 1 µg/mL in assay [2] was determined as 957%.
`O=C(CCN1CCN(C2c3ccccc3CCc3ccccc32)CC1)Nc1cccc2ncccc12` [Example 36]: in assay [1] (setting [3]), the Average surviving period turned out to be 12.6 ± 0.9 days and the “T/C (rate of life prolongation)” value is recorded as 122%. In addition, in assay [2], the activity at 1 µg/mL is 821% and the activity at 10 µg/mL came out at 716%.
The like results for `OC(COc1cccc2ncccc12)CN1CCN(C(c2ccccc2)c2ccc(Cl)cc2)CC1` (stereo not shown) [Example 58, 5-(3-[4-((4-Chlorophenyl)-phenylmethyl)piperazine-1-yl]-2-hydroxypropoxy)quinoline] were, in that order, 13.8 ± 1.8 days, 130%, 619% and 843%.
In the case of `OC(COc1cccc2ncccc12)CN1CCC(=C(c2ccccc2)c2ccccc2)CC1` (stereo not shown) [Example 13, 5-[3-(4-(Diphenylmethylene)piperidine-1-yl)-2-hydroxypropoxy]quinoline], in assay [1] (setting [3]), the Average surviving period is reported as 15.3 ± 0.5 days and the “T/C (rate of life prolongation)” value was found to be 139%. In addition, in assay [2], the activity at 1 µg/mL was determined as 517% and the activity at 10 µg/mL came out at 805%.
As to `COc1ccc(C(c2ccc(OC)cc2)N2CCN(CC(O)COc3cccc4ncccc34)CC2)cc1` (stereo not shown) [Example 59, 5-(3-[4-(Bis-(4-methoxyphenyl)methyl)piperazine-1-yl] -2-hydroxypropoxy)quinoline], in assay [1] (setting [3]), the Average surviving period is 13.2 ± 1.2 days and the “T/C (rate of life prolongation)” value was 125%. In assay [2], the activity at 1 µg/mL was found to be 561% and the activity at 10 µg/mL worked out at 685%.
Regarding `COc1ccc2c(OCC(O)CN3CCN(C(c4ccccc4)c4ccccc4)CC3)cccc2n1` (stereo not shown) [Example 42, 5-[3-(4-Diphenylmethylpiperazine-1-yl)-2-hydroxypropoxy]-2-methoxyquinoline], in assay [1] (setting [3]), the Average surviving period is reported as 13.9 ± 2.4 days and the “T/C (rate of life prolongation)” value was 126%. Besides, the activity at 1 µg/mL in assay [2] worked out at 624%.
Turning to `Cc1cc(C(F)(F)F)nc2cccc(OCC(O)CN3CCN(C(=O)C(c4ccccc4)c4ccccc4)CC3)c12` (stereo not drawn) [Example 55, 2-Trifluoromethyl-4-methyl-5-[3-(4-(α,α-diphenylacetyl)piperazine-1-yl)-2-hydroxypropoxy]quinoline], in assay [1] (setting [3]), the Average surviving period amounted to 12.7 ± 0.3 days and the “T/C (rate of life prolongation)” value stood at 120%. In addition, in assay [2], the activity at 1 µg/mL worked out at 452% and the activity at 10 µg/mL turned out to be 756%.
In the case of `OC(COc1cccc2ncccc12)CN1CCN(C(c2ccccc2)c2ccccn2)CC1` (stereo not shown) [Example 15, 5-[2-Hydroxy-3-(4-(phenyl-2-pyridylmethyl)piperazine-1-yl)propoxy]quinoline], in assay [1] (setting [3]), the Average surviving period is 12.3 ± 0.4 days and the “T/C (rate of life prolongation)” value came to 117%. Moreover, in assay [2], the activity at 1 µg/mL worked out at 840%.
Consider `CN(CCN(C)C(c1ccccc1)c1ccccc1)CC(O)COc1cccc2ncccc12` (stereo not shown) [Example 3, 5-(3-[N-(2-(N-Diphenylmethyl-N-methylamino)ethyl)-N-methylamino]-2-hydroxypropoxy)quinoline], for which, in assay [1] (setting [3]), the Average surviving period is listed as 11.0 ± 0.6 days and the “T/C (rate of life prolongation)” value is 100%. In assay [2], the activity at 1 µg/mL came to 731% and the activity at 10 µg/mL came out at 774%.
For `OC(COc1cccc2ncccc12)CN1CCC(=C2c3ccccc3CCc3ccccc32)CC1` (stereo not shown) [Example 80, 5-[3-(4-(Dibenzosuberane-5-ylidene)piperidine-1-yl)-2-hydroxypropoxy]quinoline], in assay [1] (setting [3]), the Average surviving period was 14.3 ± 0.6 days and the “T/C (rate of life prolongation)” value came out at 134%. Further, the activity at 1 µg/mL in assay [2] was found to be 942%.
For the compound `OC(COc1cccc2cnccc12)CN1CCN(C2c3ccccc3CCc3ccccc32)CC1` (stereo not shown) [Example 44, 5-[3-(4-(Dibenzosuberane-5-yl)piperazine-1-yl)-2-hydroxypropoxy]isoquinoline], in assay [1] (setting [4]), the Average surviving period was found to be 12.5 ± 0.0 days and the “T/C (rate of life prolongation)” value stood at 112%. For the same compound, in assay [1] (setting [3]), the Average surviving period is 13.8 ± 1.0 days and the “T/C (rate of life prolongation)” value was 123%. In assay [2], the activity at 1 µg/mL stood at 636% and the activity at 10 µg/mL was 934%.
For the compound `OC(COc1cccc2ncccc12)CN1CCN(C2c3ccccc3C=Cc3ccccc32)CC1` (stereo not shown) [Example 20, 5-[3-(4-(5-Dibenzosuberenyl)piperazine-1-yl)-2-hydroxypropoxy]quinoline], in assay [1] (setting [3]), the Average surviving period was 13.7 ± 1.0 days and the “T/C (rate of life prolongation)” value was 133%. Also, the activity at 1 µg/mL in assay [2] was found to be 794%.
